In PMC10907298 (Nature chemical biology, 2023):
Values joined by “and” are separate entries in the source; they are usually repeats but may differ in a detail not shown here. Equal entries are not always repeated.

What was measured:
B16-SIY tumors = assay: B16-SIY flank tumor model in human STING knock-in mice; format: in vivo, mouse; conditions: individual animals
human STING S27V = human STING S27V (Homo sapiens, UniProt Q86WV6, S27V); assay: ISRE reporter assay with STING co-transfection in HEK293T cells
human STING L98A = human STING L98A (Homo sapiens, UniProt Q86WV6, L98A); assay: as above
Sequence of human STING L98A (Q86WV6 whole entry L98A): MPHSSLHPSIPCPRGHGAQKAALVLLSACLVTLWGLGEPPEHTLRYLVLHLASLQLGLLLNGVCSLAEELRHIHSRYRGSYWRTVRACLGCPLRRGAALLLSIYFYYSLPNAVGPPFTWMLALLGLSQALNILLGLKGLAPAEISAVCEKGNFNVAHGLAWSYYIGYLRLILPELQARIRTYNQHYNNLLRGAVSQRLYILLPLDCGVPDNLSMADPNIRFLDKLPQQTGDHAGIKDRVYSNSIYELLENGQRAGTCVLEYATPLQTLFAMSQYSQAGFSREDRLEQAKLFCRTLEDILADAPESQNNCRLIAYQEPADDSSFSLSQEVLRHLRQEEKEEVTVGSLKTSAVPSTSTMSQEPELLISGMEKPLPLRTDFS

Sequence of human STING S27V (Q86WV6 whole entry S27V): as the sequence (Q86WV6 whole entry L98A) above, with S27V, A98L counted along it

ISRE reporter activity, mean (human STING S27V; Log[μM] 0.2): 28.6 | ISRE reporter activity, mean (human STING S27V; Log[μM] 0.5): 35.2 | ISRE reporter activity, mean (human STING S27V; Log[μM] 0.8): 40.6 | ISRE reporter activity, mean (human STING S27V; Log[μM] 1.1): 46.1 | ISRE reporter activity, mean (human STING S27V; Log[μM] 1.4): 46.2 | ISRE reporter activity, mean (human STING S27V; Log[μM] -0.1): 22.7 | ISRE reporter activity, mean (human STING S27V; Log[μM] -0.4): 13.4 | ISRE reporter activity, mean (human STING S27V; Log[μM] -0.7): 7.4 | ISRE reporter activity, mean (human STING S27V; Log[μM] -1): 3.8 | ISRE reporter activity, mean (human STING S27V; Log[μM] -1.3): 1.4 | STING activation in words (human STING L98A): various degrees of reduction
SMILES: COc1cc(C(=O)O)ccc1NCc1ccc(C2(C(C)(C)C)OCC(C)(C)CO2)cc1 [NVS-STG2]
Tumor Volume (B16-SIY tumors; 400μg intratumorally on day 8, day 8 post implant): 66 mm3 and 90 mm3 and 97 mm3 and 105 mm3 and 146 mm3 and 151 mm3 and 169 mm3 and 182 mm3 and 216 mm3 | Tumor Volume (B16-SIY tumors; 400μg intratumorally on day 8, day 10 post implant): 54 mm3 and 77 mm3 and 203 mm3 and 84 mm3 and 50 mm3 and 285 mm3 and 89 mm3 and 124 mm3 and 240 mm3 | Tumor Volume (B16-SIY tumors; 400μg intratumorally on day 8, day 13 post implant): 38 mm3 and 77 mm3 and 85 mm3 and 44 mm3 and 173 mm3 and 290 mm3 and 65 mm3 and 86 mm3 and 178 mm3 | Tumor Volume (B16-SIY tumors; 800μg intratumorally on day 8, day 8 post implant): 71 mm3 and 84 mm3 and 98 mm3 and 102 mm3 and 148 mm3 and 150 mm3 and 177 mm3 and 223 mm3 | Tumor Volume (B16-SIY tumors; 800μg intratumorally on day 8, day 10 post implant): 62 mm3 and 28 mm3 and 136 mm3 and 99 mm3 and 76 mm3 and 125 mm3 and 109 mm3 and 177 mm3 | Tumor Volume (B16-SIY tumors; 800μg intratumorally on day 8, day 13 post implant): 37 mm3 and 60 mm3 and 126 mm3 and 77 mm3 and 50 mm3 and 150 mm3 and 71 mm3 and 185 mm3
